System: NYHA III heart failure patients, who had not had erections for several years
Experiment: Clinical data: levosimendan infusion in heart failure patients with erectile dysfunction
Format: in vivo, man
Experimental: Clinical Data Two NYHA III heart failure patients, who had not had erections for several years were treated with levosimendan. Patient I was exposed to 0.05 μg/kg/min continuous infusion of levosimendan for 7 days.

[1] = Patient I, 0.05 μg/kg/min continuous infusion for 7 days

Question: How did the “erections during the study” value [1] turn out when `CC1CC(=O)NN=C1c1ccc(NN=C(C#N)C#N)cc1` (single isomer, unassigned; (-)) [levosimendan, (−)-[[4-(1,4,5,6-tetrahydro-4-methyl-6-oxo-3-pyridazinyl)phenyl]hydrazono]propanedinitrile] was run?
Answer: The value was “erections in the mornings during the whole study”.

Question: What about the “time to reported erections after starting the infusion” value [1] of the same compound?
Answer: The value was 1 days.

Question: What about the erections reported (Patient II, 0.1 μg/kg/min continuous infusion for 2 days) of the same compound?
Answer: The erections reported was “reported erections”.
